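Briefly, cells in 96-well plates were exposed to five compound concentrations for 48 h, and endpoints were estimated by linear interpolation. At the GI50, growth is halved. TGI: concentration producing complete growth inhibition.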
How the values were obtained:
Experiment in all cases: inhibition of tumour cell growth, NCI panel, 48 h
[1] = test system: DU-145 prostate
[2] = test system: SF-295 CNS
[3] = test system: MOLT-4 leukemia
[4] = test system: A549 NSCLC
[5] = test system: HS 578T breast
[6] = test system: PC-3 prostate
[7] = test system: HT29 colon
[8] = test system: IGROV1 ovarian
[9] = test system: RXF 393 renal
[10] = test system: OVCAR-4 ovarian
[11] = test system: HOP-62 NSCLC
[12] = test system: U251 CNS
[13] = test system: SN12C renal
[14] = test system: HCT-116 colon
[15] = test system: MDA-MB-435
[16] = test system: M14 melanoma
[17] = test system: NCI-H226 lung
[18] = test system: SF-268 CNS
[19] = test system: MALME-3M melanoma
[20] = test system: SK-MEL-5 melanoma
[21] = test system: SR leukemia
[22] = test system: HCT-15 colon
[23] = test system: SK-OV-3 ovarian
[24] = test system: K-562 leukemia
[25] = test system: NCI/ADR-RES ovarian
[26] = test system: NCI-H23 lung
[27] = test system: SNB-19 CNS
[28] = test system: SK-MEL-2 melanoma
[29] = test system: RPMI-8226 leukemia
[30] = test system: CCRF-CEM leukemia
[31] = test system: HCC-2998 colon
[32] = test system: SF-539 CNS
[33] = test system: T-47D breast
[34] = test system: KM12 colon
[35] = test system: TK-10 renal
[36] = test system: SW-620 colon
[37] = test system: OVCAR-8 ovarian
[38] = test system: SK-MEL-28 melanoma
[39] = test system: OVCAR-5 ovarian
[40] = test system: HOP-92 NSCLC
[41] = test system: HL-60(TB) leukemia
[42] = test system: MDA-MB-231 breast
[43] = test system: LOX IMVI melanoma
[44] = test system: NCI-H460 lung
[45] = test system: UACC-62 melanoma
[46] = test system: COLO 205 colon
[47] = test system: UO-31 renal
[48] = test system: MCF7 breast
[49] = test system: EKVX NSCLC
[50] = test system: CAKI-1 renal
[51] = test system: SNB-75 CNS
[52] = test system: 786-0 renal
[53] = test system: UACC-257 melanoma
[54] = test system: ACHN renal
[55] = test system: NCI-H522 lung
[56] = test system: BT-549 breast

Compound: C=C(C=O)[C@@H]1CC[C@]2(C)[C@H](CC=C3[C@H]4[C@@H](C)[C@H](C)CC[C@]4(C(=O)OC)CC[C@]32C)[C@@]1(C)CCC#N
- GI50 [1]: 1.94 µM
- TGI [1]: 3.75 µM
- GI50 [2]: 1.34 µM
- TGI [2]: 2.67 µM
- GI50 [3]: 2.66 µM
- TGI [3]: 12.6 µM
- GI50 [4]: 3.49 µM
- TGI [4]: 14.8 µM
- GI50 [5]: 2.53 µM
- TGI [5]: 5.98 µM
- GI50 [6]: 1.2 µM
- TGI [6]: 3.1 µM
- GI50 [7]: 1.59 µM
- TGI [7]: 3.47 µM
- GI50 [8]: 1.82 µM
- TGI [8]: 3.75 µM
- GI50 [9]: 1.99 µM
- TGI [9]: 3.55 µM
- GI50 [10]: 3.07 µM
- TGI [10]: 10.7 µM
- GI50 [11]: 1.96 µM
- TGI [11]: 3.9 µM
- GI50 [12]: 1.68 µM
- TGI [12]: 3.12 µM
- GI50 [13]: 1.82 µM
- TGI [13]: 3.83 µM
- GI50 [14]: 1.49 µM
- TGI [14]: 3.05 µM
- GI50 [15]: 1.81 µM
- TGI [15]: 3.53 µM
- GI50 [16]: 1.79 µM
- TGI [16]: 3.84 µM
- GI50 [17]: 1.81 µM
- TGI [17]: 3.94 µM
- GI50 [18]: 1.99 µM
- TGI [18]: 3.57 µM
- GI50 [19]: 1.96 µM
- TGI [19]: 3.69 µM
- GI50 [20]: 1.74 µM
- TGI [20]: 3.14 µM
- GI50 [21]: 1.86 µM
- TGI [21]: > 100 µM
- GI50 [22]: 1.47 µM
- TGI [22]: 3.07 µM
- GI50 [23]: 2.39 µM
- TGI [23]: 5.26 µM
- GI50 [24]: 2.83 µM
- TGI [24]: > 100 µM
- GI50 [25]: 1.95 µM
- TGI [25]: 4.58 µM
- GI50 [26]: 1.81 µM
- TGI [26]: 3.59 µM
- GI50 [27]: 1.94 µM
- TGI [27]: 4.16 µM
- GI50 [28]: 1.71 µM
- TGI [28]: 3.21 µM
- GI50 [29]: 1.61 µM
- TGI [29]: 5.71 µM
- GI50 [30]: 1.42 µM
- TGI [30]: 9.47 µM
- GI50 [31]: 1.63 µM
- TGI [31]: 3.11 µM
- GI50 [32]: 1.93 µM
- TGI [32]: 3.49 µM
- GI50 [33]: 1.34 µM
- TGI [33]: 5.54 µM
- GI50 [34]: 1.6 µM
- TGI [34]: 3.06 µM
- GI50 [35]: 1.61 µM
- TGI [35]: 3.32 µM
- GI50 [36]: 1.76 µM
- TGI [36]: 3.36 µM
- GI50 [37]: 1.9 µM
- TGI [37]: 3.89 µM
- GI50 [38]: 1.81 µM
- TGI [38]: 3.33 µM
- GI50 [39]: 2.16 µM
- TGI [39]: 4.89 µM
- GI50 [40]: 1.3 µM
- TGI [40]: 2.64 µM
- GI50 [41]: 2.26 µM
- TGI [41]: 5.95 µM
- GI50 [42]: 1.79 µM
- TGI [42]: 3.76 µM
- GI50 [43]: 1.61 µM
- TGI [43]: 3.08 µM
- GI50 [44]: 1.88 µM
- TGI [44]: 3.54 µM
- GI50 [45]: 1.59 µM
- TGI [45]: 3.59 µM
- GI50 [46]: 1.8 µM
- TGI [46]: 3.55 µM
- GI50 [47]: 1.48 µM
- TGI [47]: 2.81 µM
- GI50 [48]: 1.61 µM
- TGI [48]: 4.09 µM
- GI50 [49]: 1.89 µM
- TGI [49]: 3.71 µM
- GI50 [50]: 1.56 µM
- TGI [50]: 3.16 µM
- GI50 [51]: 1.55 µM
- TGI [51]: 3.01 µM
- GI50 [52]: 1.73 µM
- TGI [52]: 3.29 µM
- GI50 [53]: 1.82 µM
- TGI [53]: 3.53 µM
- GI50 [54]: 1.64 µM
- TGI [54]: 3.02 µM
- GI50 [55]: 1.76 µM
- TGI [55]: 3.31 µM
- GI50 [56]: 1.62 µM
- TGI [56]: 3.24 µM

Reference: PubChem BioAssay (NCI)
